Earlier results as cited in US20200281963A1, “HYDROGEN MOLECULE-CONTAINING PROPHYLACTIC OR THERAPEUTIC AGENT FOR OXIDATIVE DAMAGE IN INTRAOCULAR SURGERIES” (priority 2016, published 2020).

## [HH] [hydrogen molecules]
In 1 L of water at 25° C. at 1 atm
  amount of hydrogen molecules that can be dissolved: 17.5 mL
Water at 25° C. at 1 atm
  amount of hydrogen molecules that can be dissolved (concentration): approximately 0.8 mM
